Experimental data: patent US6133292A, “Diaryl-5-alkyl-5-methyl-2-(5H)-furanones as selective cyclooxygenase-2-inhibitors” (Merck Frosst Canada & Co., priority 1998, dated 2000)

Tests used:
COX-1 [1] = molecular target: T1, COX-1 (Homo sapiens, UniProt P23219); assay: Assay of COX-1 activity from U937 cell microsomes; format: biochemical; set-up: Assay of COX-1 Activity from U937 cell microsomes; endogenous in cells; host or cells: U937 cells, 100,000 x g microsomal fraction; conditions: read-out: U937 Cox-1 (IC50, inhibition of PGE2 production)
T1 sequence (P23219 24-599): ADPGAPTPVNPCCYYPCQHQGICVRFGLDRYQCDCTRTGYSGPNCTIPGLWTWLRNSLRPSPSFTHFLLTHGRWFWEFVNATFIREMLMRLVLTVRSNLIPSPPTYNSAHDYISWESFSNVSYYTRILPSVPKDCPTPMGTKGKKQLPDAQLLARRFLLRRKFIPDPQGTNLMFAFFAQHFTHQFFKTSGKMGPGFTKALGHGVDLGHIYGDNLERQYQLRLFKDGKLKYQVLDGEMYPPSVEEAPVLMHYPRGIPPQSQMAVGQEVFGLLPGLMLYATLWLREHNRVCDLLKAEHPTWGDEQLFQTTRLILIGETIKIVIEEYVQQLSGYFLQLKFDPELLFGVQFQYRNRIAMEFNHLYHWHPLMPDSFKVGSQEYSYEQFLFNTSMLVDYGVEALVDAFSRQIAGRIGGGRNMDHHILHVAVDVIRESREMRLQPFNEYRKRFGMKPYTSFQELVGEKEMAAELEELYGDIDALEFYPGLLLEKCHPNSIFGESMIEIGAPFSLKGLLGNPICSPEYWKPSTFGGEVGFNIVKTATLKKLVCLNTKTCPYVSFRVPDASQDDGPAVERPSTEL
Method: Assay of COX-1 Activity from U937 cell microsomes
U 937 cells are pelleted by centrifugation at 500 x g for 5 min and washed once with phosphate-buffered saline and repelleted. Cells are resuspended in homogenization buffer consisting of 0.1 M Tris-HCl, pH 7.4, 10 mM EDTA, 2 μg/ml leupeptin, 2 μg/ml soybean trypsin inhibitor, 2 μg/ml aprotinin and 1 mM phenyl methyl sulfonyl fluoride. The cell suspension is sonicated 4 times for 10 sec and is centrifuged at 10,000 x g for 10 min at 4° C. The supernatant is centrifuged at 100,000 x g for 1 hr at 4° C. The 100,000 x g microsomal pellet is resuspended in 0.1 M Tris-HCl, pH 7.4, 10 mM EDTA to approximately 7 mg protein/mil and stored at -80° C.
Microsomal preparations are thawed immediately prior to use, subjected to a brief sonication, and then diluted to a protein concentration of 125 μg/ml in 0.1 M Tris-HCl buffer, pH 7.4 containing 10 mM EDTA, 0.5 mM phenol, 1 mM reduced glutathione and 1 μM hematin. Assays are performed in duplicate in a final volume of 250 μl. Initially, 5 μl of DMSO vehicle or drug in DMSO are added to 20 μl of 0.1 M Tris-HCl buffer, pH 7.4 containing 10 mM EDTA in wells of a 96-deepwell polypropylene titre plate. 200 μl of the microsomal preparation are then added and pre-incubated for 15 min at room temperature before addition of 25 μl of […] arachidonic acid in […] Tris-HCl and 10 mM EDTA, pH 7.4. Samples are incubated for 40 min at room temperature and the reaction is stopped by the addition of 25 μl of 1 N HCl. Samples are neutralized with 25 μl of 1 N NaOH prior to quantitation of PGE2 content by radioimmunoassay (Dupont-NEN or Amersham assay kits). Cyclooxygenase activity is defined as the difference between PGE2 levels in samples incubated in the presence of arachidonic acid and ethanol vehicle.
(§1) Compounds of the present invention are inhibitors of COX-2 and are thereby useful in the treatment of COX-2 mediated diseases as enumerated above. The activities of the compounds against cyclooxygenase may be seen in the representative results shown below. In the assay, inhibition is determined by measuring the amount of prostaglandin E2 (PGE2) synthesized in the presence of arachidonic acid, COX-1 or COX-2 and a putative inhibitor. The IC50 values represent the concentration of putative inhibitor required to lower PGE2 synthesis to 50% of that obtained as compared to the uninhibited control.

COX-1 [2] = molecular target: T1, COX-1; assay: Human whole blood assay, COX-1 (clotting-induced TxB2 production); format: cell-based; set-up: platelets in whole blood contain a large amount of the COX-1 enzyme; from tissue; host or cells: fresh human whole blood without anticoagulant, platelets; conditions: clotting-induced TxB2, 1 hour at 37° C, read-out: HWB Cox-1 (IC50)
Method: (§2) Human whole blood provides a protein and cell-rich milieu appropriate for the study of biochemical efficacy of anti-inflammatory compounds such as selective COX-2 inhibitors. […] This is consistent with the observation that COX-2 inhibitors have no effect on PGE2 production in normal blood. These inhibitors are active only after incubation of human whole blood with LPS, which induces COX-2. This assay can be used to evaluate the inhibitory effect of selective COX-2 inhibitors on PGE2 production. As well, platelets in whole blood contain a large amount of the COX-1 enzyme. Immediately following blood clotting, platelets are activated through a thrombin-mediated mechanism. This reaction results in the production of thromboxane B2 (TXB2) via activation of COX-1. Thus, the effect of test compounds on TxB2 levels following blood clotting can be examined and used as an index for COX-1 activity. Therefore, the degree of selectivity by the test compound can be determined by measuring the levels of PGE2 after LPS induction (COX-2) and TxB2 following blood clotting (COX-1) in the same assay.
B. COX-1 (Clotting-induced TxB2 production)
Fresh blood is collected into vacutainers containing no anticoagulants. […] The tubes are vortexed and incubated at 37° C. for 1 hour to allow blood to clot. At the end of incubation, serum is obtained by centrifugation (12,000 x g for 5 min.). A 100 μL aliquot of serum is mixed with 400 μL of methanol for protein precipitation. The supernatant is obtained and is assayed for TxB2 using a enzyme immunoassay kit (Cayman, #519031) according to the manufacturer's instruction. […]

[3] = Pharmacokinetics in rats (half-life); format: in vivo, rat (male Sprague Dawley); conditions: rat, blood, read-out: T 1/2 in Rats (converted)
Source text: Per Os Pharmacokinetics in Rats--Procedure:
The animals are housed, fed and cared for according to the Guidelines of the Canadian Council on Animal Care. Male Sprague Dawley rats (325-375 g) are fasted overnight prior to each PO blood level study. The rats are placed in the restrainer one at a time and the box firmly secured. The zero blood sample is obtained by nicking a small (1 mm or less) piece off the tip of the tail. The tail is then stroked with a firm but gentle motion from the top to the bottom to milk out the blood. Approximately 1 mL of blood is collected into a heparirnized vacutainer tube.
Compounds are prepared as required, in a standard dosing volume of 10 mL/kg, and administered orally by passing a 16 gauge, 3" gavaging needle into the stomach. Subsequent bleeds are taken in the same manner as the zero bleed except that there is no need to nick the tail again. The tail is cleaned with a piece of gauze and milked/stroked as described above into the appropriately labelled tubes.
Immediately after sampling, blood is centrifuged, separated, put into clearly marked vials and stored in a freezer until analysed. Typical time points for determination of rat blood levels after PO dosing are 0, 15 min, 30 min, 1 h, 2 h, 4 h, and 6 h.
After the 4 hr time point bleed, food is provided to the rats ad libitum. Water is provided at all times during the study.
The following vehicles may be used in PO rat blood level determinations:
Compounds for PO blood levels can be in suspension form. For better dissolution, the solution can be placed in a sonicator for approximately 5 minutes.
For analysis, aliquots are diluted with an equal volume of acetonitrile and centrifuged to remove protein precipitate. The supernatant is injected directly onto a C-18 HPLC column with UV detection. Quantitation is done relative to a clean blood sample spiked with a known quantity of drug.
Intravenous Pharmacokinetics in Rats--Procedure
The animals are housed, fed and cared for according to the Guidelines of the Canadian Council on Animal Care. Male Sprague Dawley (325-375 g) rats are placed in plastic shoe box cages with a suspended floor, cage top, water bottle and food. The compound is prepared as required, in a standard dosing volume of 1 mL/kg.
Rats are bled for the zero blood sample and dosed under CO2 sedation. The rats, one at a time, are placed in a primed CO2 chamber and taken out as soon as they have lost their righting reflex. The rat is then placed on a restraining board, a nose cone with CO2 delivery is placed over the muzzle and the rat restrained to the board with elastics. With the use of forceps and scissors, the jugular vein is exposed and the zero sample taken, followed by a measured dose of compound which is injected into the jugular vein. Light digital pressure is applied to the injection site, and the nose cone is removed. The time is noted. This constitutes the zero time point.
The 5 min bleed is taken by nicking a piece (1-2 mm) off the tip of the tail. The tail is then stroked with a firm but gentle motion from the top of the tail to the bottom to milk the blood out of the tail. Approximately 1 mL of blood is collected into a heparinized collection vial. Subsequent bleeds are taken in the same fashion, except that there is no need to nick the tail again. The tail is cleaned with a piece of gauze and bled, as described above, into the appropriate labelled tubes. Typical time points for determination of rat blood levels after I.V. dosing are either a) 0, 5 min, 15 min, 30 min, 1 h, 2 h, 6 h, or b) 0, 5 min, 30 min, 1 h, 2 h, 4 h, 6 h.
The following vehicles may be used in IV rat blood level determinations:
DMSO (dimethylsulfoxide): Restricted to a dose volume of 0.1 mL per animal
PEG 200: Not more than 60% mixed with 40% sterile water --1 mL/kg
With Dextrose, either sodium bicarbonate or sodium carbonate can be added if the solution is cloudy. […]

COX-2 = molecular target: T2, COX-2 (Homo sapiens, UniProt P35354); assay: Human whole blood assay, COX-2 (LPS-induced PGE2 production); format: cell-based; set-up: incubation of human whole blood with LPS, which induces COX-2; from tissue; host or cells: fresh heparinized human whole blood from male and female volunteers, LPS-stimulated; conditions: 24 hours at 37° C, read-out: HWB Cox-2 (IC50, inhibition of PGE2 production)
T2 sequence (P35354 18-604): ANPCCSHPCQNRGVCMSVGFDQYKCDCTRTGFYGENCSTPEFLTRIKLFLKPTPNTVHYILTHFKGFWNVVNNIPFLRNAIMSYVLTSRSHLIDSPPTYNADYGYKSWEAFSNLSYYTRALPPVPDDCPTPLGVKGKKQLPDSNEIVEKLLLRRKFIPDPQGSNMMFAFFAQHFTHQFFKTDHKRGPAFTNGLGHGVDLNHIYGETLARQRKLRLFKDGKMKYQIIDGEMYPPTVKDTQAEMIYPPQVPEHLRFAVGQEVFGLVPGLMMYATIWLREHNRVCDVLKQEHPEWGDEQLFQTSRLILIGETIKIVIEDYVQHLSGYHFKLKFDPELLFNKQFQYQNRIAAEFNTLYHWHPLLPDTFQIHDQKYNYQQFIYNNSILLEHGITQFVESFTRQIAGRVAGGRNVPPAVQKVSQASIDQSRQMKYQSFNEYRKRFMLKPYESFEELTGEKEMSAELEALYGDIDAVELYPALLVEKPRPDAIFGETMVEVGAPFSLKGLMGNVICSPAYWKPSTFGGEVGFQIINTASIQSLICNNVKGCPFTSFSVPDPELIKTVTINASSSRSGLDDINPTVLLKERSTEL
Method: as §2
A. COX-2 (LPS-induced PGE9 production)
Fresh blood is collected in heparinized tubes by venipuncture from both male and female volunteers. The subjects have no apparent inflammatory conditions and have not taken any NSAIDs for at least 7 days prior to blood collection. Plasma is immediately obtained from a 2 mL blood aliquot to use as blank (basal levels of PGE2). The remaining blood is incubated with LPS (100 μg/ml final concentration, Sigma Chem, #L-2630 from E. coli; diluted in 0.1% BSA (Phosphate buffered saline) for 5 minutes at room temperature. Five hundred μL aliquots of blood are incubated with either 2 μL of vehicle (DMSO) or 2 μL of a test compound at final concentrations varying from 10 nM to 30 μM for 24 hours at 37° C. At the end of the incubation, the blood is centrifuged at 12,000 x g for 5 minutes to obtain plasma. A 100 μL aliquot of plasma is mixed with 400 μL of methanol for protein precipitation. The supernatant is obtained and is assayed for PGE2 using a radioimmunoassay kit (Amersham, RPA#530) after conversion of PGE2 to its methyl oximate derivative according to the manufacturer's procedure.
as §1

IC50 (COX-1 [1]) [µM] | IC50 (COX-1 [2]) [µM] | half-life [3] [h] | IC50 (COX-2) [µM] | SMILES
10 to 30 | > 30 | > 24 |  | CC1(C)OC(=O)C(c2ccc(F)c(F)c2)=C1c1ccc(S(C)(=O)=O)cc1 [Compound T3-2, 3-(3,4-difluorophenyl)-5,5-dimethyl-4-[4-(methylsulfonyl)phenyl]-2,5-dihydro-2-furanone, reference compound]
> 10 | > 30 |  | 0.48 | CCC1(C)OC(=O)C(c2cccc(F)c2)=C1c1ccc(S(C)(=O)=O)cc1 (stereo not drawn) [f, 5-ethyl-3-(3-fluorophenyl)-5-methyl-4-[4-(methylsulfonyl)phenyl]-2,5-dihydro-2-furanone]
3 to 10 | > 30 |  | < 0.37 | CCC1(C)OC(=O)C(c2ccccc2)=C1c1ccc(S(C)(=O)=O)cc1 (stereo not drawn) [a, 5-ethyl-5-methyl-4-[4-(methylsulfonyl)phenyl]-3-phenyl-2,5-dihydro-2-furanone]
